{"source": "paper PMC9260974", "about": "(BMC Pharmacology & Toxicology, 2022)", "origin": "cited, not measured here", "conditions": "in vivo, po; cited from earlier work"}
{"smiles": "C[C@H](CS)C(=O)N1CCC[C@H]1C(=O)O", "note": "[captopril]", "values": [{"measurement": "Reduction of bioavailability by food", "value": "35-50%"}]}
